Test results reported in the PolyMetriX glass transition set.

SMILES	glass transition temperature
*c1ccc(Oc2ccc(C3(c4ccc(Oc5ccc(N6C(=O)c7ccc(Oc8ccc(C9(c%10ccc(Oc%11ccc%12c(c%11)C(=O)N(*)C%12=O)cc%10)CCCCCCCCCCC9)cc8)cc7C6=O)cc5)cc4)C4CC5CC(C4)CC3C5)cc2)cc1 (repeat unit)	262.00 °C
*CCCCCCCCNC(=O)CCCCC(=O)N* (repeat unit)	50.00 °C
*CCN(*)C(=O)CSC (repeat unit)	39.00 °C
*c1nc2cc(S(=O)(=O)c3ccc4oc(C5CCC(*)CC5)nc4c3)ccc2o1 (repeat unit)	296.00 °C
*CCCCCCCCCCCCN1C(=O)c2ccc(Oc3ccc4c(c3)C(=O)N(*)C4=O)cc2C1=O (repeat unit)	70.00 °C
*c1ccc(Oc2ccc(-c3ccc(Oc4ccc(N5C(=O)c6ccc(Oc7ccccc7Oc7ccc8c(c7)C(=O)N(*)C8=O)cc6C5=O)cc4)cc3)cc2)cc1 (repeat unit)	204.00 °C
*c1ccc(C2(c3ccc(-c4cc(-c5ccccc5)c5cc(Oc6ccc7nc(*)cc(-c8ccccc8)c7c6)ccc5n4)cc3)c3ccccc3-c3ccccc32)cc1 (repeat unit)	310.00 °C
*CCN(*)C(=O)CC(C)C (repeat unit)	30.00 °C
*CC(*)c1ccccc1COCc1ccccc1 (repeat unit)	72.00 °C
*C1CC2CC1C(*)C2CCCCCC (repeat unit)	252.00 °C
*CC(COc1ccc(-c2ccc(C#N)cc2)cc1)O* (repeat unit)	94.2 °C
*c1ccc(-c2cc(CCCCCCCC)c(-c3ccc(-c4ccc(-c5sc(-c6ccc([Si](C)(C)[Si](C)(C)[Si](C)(C)[Si](*)(C)C)s6)cc5CCCCCCCC)s4)s3)s2)s1 (repeat unit)	6.00 °C
*c1cccc(S(=O)(=O)NCCCCCCNS(*)(=O)=O)c1 (repeat unit)	67.00 °C
*C(=O)c1ccc2c(c1)C(=O)N(c1cccc(P(=O)(c3ccccc3)c3cccc(N4C(=O)c5ccc(*)cc5C4=O)c3)c1)C2=O (repeat unit)	273.00 °C
*CCOCCOC(=O)CC(=O)O* (repeat unit)	-41.50 °C
*CCCCCCOC(=O)c1cccc(C(=O)O*)c1 (repeat unit)	5.50 °C
*C(=O)OCCN(CCOC(=O)c1ccc2c(c1)C(=O)N(c1cccc(N3C(=O)c4ccc(*)cc4C3=O)c1)C2=O)c1ccc(/N=N/c2ccc(C)cc2)cc1 (repeat unit)	171.00 °C
*/C=C/C1C/C(=C\C)C(*)C1 (repeat unit)	121.00 °C
*CCCCCCCCCCCCCCc1ccc(-c2c(-c3ccccc3)cc(-c3ccc(-c4cc(-c5ccccc5)c(-c5ccc(*)cc5)c(-c5ccccc5)c4-c4ccccc4)cc3)c(-c3ccccc3)c2-c2ccccc2)cc1 (repeat unit)	185.00 °C
*CC(*)C(=O)OCCCSCCC#N (repeat unit)	-58.00 °C
*Oc1ccc(/N=C/CCC/C=N/c2ccc(OC(=O)NC3CC(C)(C)CC(C)(CNC(*)=O)C3)cc2)cc1 (repeat unit)	66.00 °C
*CCCCCC(=O)Oc1ccc(OC(=O)CCCCCn2c(=O)c3cc4c(=O)n(*)c(=O)c4cc3c2=O)c(Cl)c1 (repeat unit)	87.00 °C

Results, then the molecule that gave them:

glass transition temperature	SMILES
187.00 °C	*Oc1ccc(S(=O)(=O)c2ccc(Oc3c(C)cc(C(C)(C)c4cc(C)c(*)c(C)c4)cc3C)cc2C(O)(C(F)(F)F)C(F)(F)F)c(C(O)(C(F)(F)F)C(F)(F)F)c1 (repeat unit)
267.50 °C	*C(=O)c1cc(C(=O)c2ccc3c(c2)C(=O)N(c2ccc(C(c4ccc(N5C(=O)c6ccc(*)cc6C5=O)cc4)(C(F)(F)F)C(F)(F)F)cc2)C3=O)cc(C(C)(C)C)c1 (repeat unit)
165.00 °C	*CCNC(=O)c1ccc([Si](c2ccccc2)(c2ccccc2)c2ccc(C(=O)NCCN(*)c3ccc(/C=C/c4ccc([N+](=O)[O-])cc4)cc3)cc2)cc1 (repeat unit)
101.00 °C	*CCCOC(=O)c1cc(/N=N/c2ccc(OCC)cc2)ccc1-c1ccc(/N=N/c2ccc(OCC)cc2)cc1C(=O)O* (repeat unit)
146.00 °C	*Oc1ccc(Oc2ccc(C(=O)c3ccc(*)cc3)cc2)cc1-c1ccc(Oc2ccccc2)cc1 (repeat unit)
160.00 °C	*Oc1ccc(NC(=O)c2cc(NC(=O)CCCCCCCCCCN3C(=O)c4ccccc4C3=O)cc(C(=O)Nc3ccc(*)cc3)c2)cc1 (repeat unit)
75.50 °C	*Oc1ccc(CC(NC(=O)Cc2ccc(OC(=O)CCC(*)=O)cc2)C(=O)OCC)cc1 (repeat unit)
57.00 °C	*CC(*)(C)C(=O)OCCCCCCOc1ccc(OC(=O)c2ccc(-c3ccc(OC)cc3)cc2)cc1 (repeat unit)
200.10 °C	*Oc1cccc(Oc2cccc(NC(=O)c3cc(Oc4ccc(C(=O)O)c(C(=O)Nc5cccc(*)c5)c4)ccc3C(=O)O)c2)c1C#N (repeat unit)
214.00 °C	*Oc1ccc(C(=O)Nc2cc(C(c3ccc(C)c(NC(=O)c4ccc(OC(=O)c5cccc(C(*)=O)c5)cc4)c3)(C(F)(F)F)C(F)(F)F)ccc2C)cc1 (repeat unit)
138.00 °C	*Oc1ccc(C(C#N)(c2ccccc2)c2ccc(OC(*)=O)cc2)cc1 (repeat unit)
262.00 °C	*c1ccc(Oc2ccc(-c3ccc(Oc4ccc(N5C(=O)c6ccc(Oc7cc(C(C)(C)C)c(Oc8ccc9c(c8)C(=O)N(*)C9=O)cc7C(C)(C)C)cc6C5=O)cc4)cc3)cc2)cc1 (repeat unit)
205.00 °C	*CCN(CCN1C(=O)c2ccc(C(c3ccc4c(c3)C(=O)N(*)C4=O)(C(F)(F)F)C(F)(F)F)cc2C1=O)c1ccc(/N=N/c2ccc([N+](=O)[O-])cc2C)cc1 (repeat unit)
270.00 °C	*c1ccc(Oc2ccc(C(=O)c3cccc(C(=O)c4ccc(Oc5ccc(-c6nc(-c7ccc(-c8nc(*)c(-c9ccccc9)[nH]8)cc7)[nH]c6-c6ccccc6)cc5)cc4)c3)cc2)cc1 (repeat unit)
81.00 °C	*Oc1ccc(C(c2ccc(OC(=O)Nc3ccc(Cc4ccc(NC(*)=O)cc4)cc3)cc2)(C(F)(F)F)C(F)(F)F)cc1 (repeat unit)
318.00 °C	*C(=O)c1ccc2nc(-c3ccc(-c4cnc5cc(*)ccc5n4)cc3)cnc2c1 (repeat unit)
142.00 °C	*c1ccc(Oc2ccc(Sc3ccc(Oc4ccc(-c5ccc(*)s5)cc4C(F)(F)F)cc3)cc2)c(C(F)(F)F)c1 (repeat unit)
231.00 °C	*c1cccc(S(=O)(=O)c2cccc(N3C(=O)c4ccc(Oc5ccc(Sc6ccc(Oc7ccc8c(c7)C(=O)N(*)C8=O)cc6)cc5)cc4C3=O)c2)c1 (repeat unit)
200.00 °C	*c1ccc(Oc2ccc(-c3ccc(Oc4ccc(-c5ncc(*)o5)cc4C(F)(F)F)cc3)cc2)c(C(F)(F)F)c1 (repeat unit)
305.00 °C	*c1ccc2c(c1)C(=O)N(c1ccc(C(c3ccccc3)(c3ccc(N4C(=O)c5ccc(C(*)(C(F)(F)F)C(F)(F)F)cc5C4=O)cc3)C(F)(F)F)cc1)C2=O (repeat unit)
